According to PubChem BioAssay AID1963964 (Molecular Pharmacology Branch, DTP, NCI, 2024):
“And” between values parts separate entries of the source, which are not always exact repeats. Identical values can stand only once.

Tested on: 997726-040-R-J2-PDC tumor spheroids, viability
Assay: Anticancer human tumor 997726-040-R-J2-PDC patient-derived squamous cell lung carcinoma cell line growth inhibition [PI3K]
Settings: spheroids with HUVEC and MSC; for viability, T/C: stronger effect = lower value
In short: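 Multi-cell spheroids combine tumor cells with HUVEC and human MSCs, treated with targeted agents alone or with inavolisib, alpelisib, duvelisib or copanlisib. Concentrations fall in half-log steps from at or near clinical Cmax, or from 10 microM where Cmax is unknown; viability read-out.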

[1] = curve of first compound, second compound 0.0316 µM
[2] = curve of first compound, second compound 0.1 µM
[3] = curve of first compound, second compound 0.316 µM
[4] = curve of first compound, second compound 1 µM
[5] = second compound 0.0316 µM, first compound 0.0316 µM
[6] = second compound 0.0316 µM, first compound 0.1 µM
[7] = second compound 0.1 µM, first compound 0.0316 µM
[8] = second compound 0.1 µM, first compound 0.1 µM
[9] = second compound 0.316 µM, first compound 0.0316 µM
[10] = second compound 0.316 µM, first compound 0.1 µM
[11] = second compound 1 µM, first compound 0.0316 µM
[12] = second compound 1 µM, first compound 0.1 µM
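Note: spheroids exposed to compounds for seven days before readout.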

SMILES: CC(C)n1nc(-c2ccc3oc(N)nc3c2)c2c(N)ncnc21 + Cc1nc(NC(=O)N2CCCC2C(N)=O)sc1-c1ccnc(C(C)(C)C(F)(F)F)c1
- IC50 [1]: 17.1 nM
- IC50 [2]: 10.7 nM
- IC50 [3]: 3.53 nM
- IC50 [4]: < 0.316 nM
- IC50 (curve of first compound, second compound 3.16 µM): < 0.316 nM
- IC50 (curve of first compound, second compound 10 µM): < 0.316 nM
- viability, T/C (second compound 0.0316 µM, first compound 0.000316 µM): 80.4%
- viability, T/C (second compound 0.0316 µM, first compound 0.001 µM): 80%
- viability, T/C (second compound 0.0316 µM, first compound 0.00316 µM): 66.5%
- viability, T/C (second compound 0.0316 µM, first compound 0.01 µM): 62%
- viability, T/C [5]: 38.8%
- viability, T/C [6]: 7.7%
- viability, T/C (second compound 0.1 µM, first compound 0.000316 µM): 84.9%
- viability, T/C (second compound 0.1 µM, first compound 0.001 µM): 71.1%
- viability, T/C (second compound 0.1 µM, first compound 0.00316 µM): 64.4%
- viability, T/C (second compound 0.1 µM, first compound 0.01 µM): 52.8%
- viability, T/C [7]: 33.6%
- viability, T/C [8]: 7.57%
- viability, T/C (second compound 0.316 µM, first compound 0.000316 µM): 62%
- viability, T/C (second compound 0.316 µM, first compound 0.001 µM): 61.8%
- viability, T/C (second compound 0.316 µM, first compound 0.00316 µM): 51.1%
- viability, T/C (second compound 0.316 µM, first compound 0.01 µM): 36.7%
- viability, T/C [9]: 28.6%
- viability, T/C [10]: 6.37%
- viability, T/C (second compound 1 µM, first compound 0.000316 µM): 43.7%
- viability, T/C (second compound 1 µM, first compound 0.001 µM): 38.9%
- viability, T/C (second compound 1 µM, first compound 0.00316 µM): 38.3%
- viability, T/C (second compound 1 µM, first compound 0.01 µM): 32.7%
- viability, T/C [11]: 21.3%
- viability, T/C [12]: 3.77%
- viability, T/C (second compound 3.16 µM, first compound 0.000316 µM): 32.4%
- viability, T/C (second compound 3.16 µM, first compound 0.001 µM): 31.8%
- viability, T/C (second compound 3.16 µM, first compound 0.00316 µM): 27.9%
- viability, T/C (second compound 3.16 µM, first compound 0.01 µM): 24.5%
- viability, T/C (second compound 3.16 µM, first compound 0.0316 µM): 9.73%
- viability, T/C (second compound 3.16 µM, first compound 0.1 µM): 2.15%
- viability, T/C (second compound 10 µM, first compound 0.000316 µM): 21%
- viability, T/C (second compound 10 µM, first compound 0.001 µM): 11.3%
- viability, T/C (second compound 10 µM, first compound 0.00316 µM): 10.4%
- viability, T/C (second compound 10 µM, first compound 0.01 µM): 8.32%
- viability, T/C (second compound 10 µM, first compound 0.0316 µM): 4.53%
- viability, T/C (second compound 10 µM, first compound 0.1 µM): 1.59%

SMILES: CNC(=O)c1ccc(N2C(=S)N(c3ccc(C#N)c(C(F)(F)F)c3)C(=O)C2(C)C)cc1F + COc1c(OCCCN2CCOCC2)ccc2c3n(c(=NC(=O)c4cnc(N)nc4)nc12)CCN3
- IC50 (curve of first compound, second compound 0.00316 µM): > 10000 nM
- IC50 (curve of first compound, second compound 0.01 µM): > 10000 nM
- IC50 [1]: < 31.6 nM
- IC50 [2]: < 31.6 nM
- IC50 [3]: < 31.6 nM
- IC50 [4]: < 31.6 nM
- viability, T/C (second compound 0.00316 µM, first compound 0.0316 µM): 73.4%
- viability, T/C (second compound 0.00316 µM, first compound 0.1 µM): 81.8%
- viability, T/C (second compound 0.00316 µM, first compound 0.316 µM): 70.3%
- viability, T/C (second compound 0.00316 µM, first compound 1 µM): 76.1%
- viability, T/C (second compound 0.00316 µM, first compound 3.16 µM): 77.7%
- viability, T/C (second compound 0.00316 µM, first compound 10 µM): 68.2%
- viability, T/C (second compound 0.01 µM, first compound 0.0316 µM): 66.2%
- viability, T/C (second compound 0.01 µM, first compound 0.1 µM): 61.2%
- viability, T/C (second compound 0.01 µM, first compound 0.316 µM): 54.8%
- viability, T/C (second compound 0.01 µM, first compound 1 µM): 54.8%
- viability, T/C (second compound 0.01 µM, first compound 3.16 µM): 56.4%
- viability, T/C (second compound 0.01 µM, first compound 10 µM): 50%
- viability, T/C [5]: 38.2%
- viability, T/C [6]: 40.2%
- viability, T/C (second compound 0.0316 µM, first compound 0.316 µM): 35.9%
- viability, T/C (second compound 0.0316 µM, first compound 1 µM): 36.6%
- viability, T/C (second compound 0.0316 µM, first compound 3.16 µM): 31.1%
- viability, T/C (second compound 0.0316 µM, first compound 10 µM): 30.9%
- viability, T/C [7]: 24.3%
- viability, T/C [8]: 27.4%
- viability, T/C (second compound 0.1 µM, first compound 0.316 µM): 21.6%
- viability, T/C (second compound 0.1 µM, first compound 1 µM): 24.9%
- viability, T/C (second compound 0.1 µM, first compound 3.16 µM): 20.5%
- viability, T/C (second compound 0.1 µM, first compound 10 µM): 22.4%
- viability, T/C [9]: 5.92%
- viability, T/C [10]: 6.55%
- viability, T/C (second compound 0.316 µM, first compound 0.316 µM): 5.84%
- viability, T/C (second compound 0.316 µM, first compound 1 µM): 6.05%
- viability, T/C (second compound 0.316 µM, first compound 3.16 µM): 6.82%
- viability, T/C (second compound 0.316 µM, first compound 10 µM): 4.31%
- viability, T/C [11]: 1.55%
- viability, T/C [12]: 1.44%
- viability, T/C (second compound 1 µM, first compound 0.316 µM): 1.25%
- viability, T/C (second compound 1 µM, first compound 1 µM): 1.13%
- viability, T/C (second compound 1 µM, first compound 3.16 µM): 1.39%
- viability, T/C (second compound 1 µM, first compound 10 µM): 1.47%

SMILES: C=CC(=O)N1CCN(c2nc(=O)n(-c3c(C)ccnc3C(C)C)c3nc(-c4c(O)cccc4F)c(F)cc23)C(C)C1 (stereo unspecified)
- viability, T/C (compound 0.0316 µM): 105% [middle of 4 runs]
- viability, T/C (compound 0.1 µM): 91.2% and 100% (2×) and 96.7%
- viability, T/C (compound 0.316 µM): 109% [middle of 4 runs]
- viability, T/C (compound 1 µM): 109% [middle of 4 runs]
- viability, T/C (compound 3.16 µM): 126% [middle of 4 runs]
- viability, T/C (compound 10 µM): 122% [middle of 4 runs]
- IC50 (curve of compound): > 10000 nM
